How the values were obtained:
type 1 procollagen = assay: Type 1 procollagen expression in dermal fibroblasts, Western blot; assay type: cell-based, human; conditions: 25-150 μg/ml, 48 hours
Protocol: Cell debris was removed by centrifugation at 20,000×g for 10 minutes. The protein concentration in supernatant was determined using the MicroBCA™ method (Pierce™, Rockford, Ill.). Proteins in supernatant were mixed with protein sample loading buffer (final concentration: 60 mM Tris-HCl (pH 6.80), 2% SDS, 10% glycerol, 1.5% β-mercaptoethanol, 0.002% bromophenol blue) and size fractioned by 10% of SDS-polyacrylamide gel. After proteins were transferred onto nitrocellulose membrane by iBlot™ (Invitrogen Life Technologies™), non-specific binding were blocked with phosphate buffer saline twenty 20 (PBS-T) containing 5% skim milk for 1 hour. The membrane was then incubated with primary antibody overnight. After incubation with a secondary antibody for 1 hour, protein bands were visualized by an enhanced chemiluminescence (ECL™) detection system (Santa Cruz Biotechnology™, Santa Cruz, Calif.). […] The secondary antibodies were either goat anti-mouse IgG (H+L) HPR conjugate or goat anti-rabbit IgG (H+L) HPR conjugate (Bio-rad Laboratory™ (Mississauga, ON, Canada). Secondary antibodies were used at a concentration of 1:3000.

MEK = MEK phosphorylation in dermal fibroblasts, Western blot; assay type: cell-based, human; conditions: 100 μg/ml
Protocol: Cells were harvested by Trypsin/EDTA and lysed with cell lysis buffer containing 50 mM Tris-HCl (pH7.40), 150 mM NaCl, 10 mM EDTA, 5 mM EGTA, 1% TritonX-100™, 0.5% Igepal CA-630, 0.025% NaN3 and protease inhibitor cocktail (Sigma™). Cell debris was removed by centrifugation at 20,000×g for 10 minutes. The protein concentration in supernatant was determined using the MicroBCA™ method (Pierce™, Rockford, Ill.). Proteins in supernatant were mixed with protein sample loading buffer (final concentration: 60 mM Tris-HCl (pH 6.80), 2% SDS, 10% glycerol, 1.5% β-mercaptoethanol, 0.002% bromophenol blue) and size fractioned by 10% of SDS-polyacrylamide gel. After proteins were transferred onto nitrocellulose membrane by iBlot™ (Invitrogen Life Technologies™), non-specific binding were blocked with phosphate buffer saline twenty 20 (PBS-T) containing 5% skim milk for 1 hour. The membrane was then incubated with primary antibody overnight. After incubation with a secondary antibody for 1 hour, protein bands were visualized by an enhanced chemiluminescence (ECL™) detection system (Santa Cruz Biotechnology™, Santa Cruz, Calif.). […]

human dermal fibroblasts = assay: MTT proliferation assay of human dermal fibroblasts; assay type: cell-based; conditions: up to 150 μg/ml, 48 hours
Protocol: The effect of kynurenine on human dermal fibroblast proliferation was detected by MTT [3-(4,5-Dimethylthiazol-2-yl)-2,5-diphenyltetrazolium bromide] assay. In brief, 10,000 cells were seeded on a 24 well-plate and incubated with different concentrations of kynurenine for 48 hours. Media were removed and 0.2 ml of MTT (5 mg/ml in DMEM containing 2% FBS) was added. Cells were incubated with MIT for 4 hours. After washing 3 times with PBS, 0.2 ml of DMSO was added to dissolve the crystals. Absorbance was measured at 570 nm.

Nc1ccccc1C(=O)CC(N)C(=O)O (racemic) [kynurenine]
expression of type 1 procollagen (type 1 procollagen): remarkably decreases | time of peak MEK activation (MEK): 8 h | MEK phosphorylation (MEK; different times): detection of the ERK1/2 upstream signal molecule MEK phosphorylation | fibroblast proliferation (MTT) (human dermal fibroblasts): no significant effect
